# Laboratory results as given in patent US20260013504A1, “HERBICIDAL MIXTURE, HERBICIDAL COMPOSITION, METHOD, USE, AND KITS FOR CONTROLLING UNDESIRABLE VEGETATION” (ADAMA AGAN LTD., priority 2022, published 2026).
# Experiments:
# Assay type in all cases: in vivo
# Aegilops tauschii = experiment: Pot experiment, soil treatment, control of Aegilops tauschii (fresh weight, Colby); settings: mixtures: both AIs at these rates, after 35 days
# Lolium multiflorum Lamk = experiment: Pot experiment, soil treatment, control of Lolium multiflorum Lamk (fresh weight, Colby); settings: mixtures: both AIs at these rates, after 35 days
# Bromus japonicus = experiment: Pot experiment, soil treatment, control of Bromus japonicus (fresh weight, Colby); settings: mixtures: both AIs at these rates, after 35 days
# Galium aparine = experiment: Pot experiment, soil treatment, control of Galium aparine (fresh weight, Colby)
# Lithospermum arvense = experiment: Pot experiment, soil treatment, control of Lithospermum arvense (fresh weight, Colby)
# Solanum nigrum = experiment: Pot experiment (glass greenhouse), soil treatment, control of Solanum nigrum (fresh weight, Colby)
# [1] = g ai/ha: pyroxasulfone 11.25, fluorochloridone 31.25, aclonifen 150, diflufenican 14.0625, terbutryn 140.625
# [2] = g ai/ha: pyroxasulfone 22.5, fluorochloridone 62.5, aclonifen 300, diflufenican 28.125, terbutryn 281.25
# [3] = g ai/ha: pyroxasulfone 45, fluorochloridone 125, aclonifen 600, diflufenican 56.25, terbutryn 562.5
# [4] = g ai/ha: pyroxasulfone 90, fluorochloridone 250, aclonifen 1200, diflufenican 112.5, terbutryn 1125
# [5] = g ai/ha: pyroxasulfone 180, fluorochloridone 500, aclonifen 2400, diflufenican 225, terbutryn 2250
# [6] = g ai/ha: pyroxasulfone 360, fluorochloridone 1000, aclonifen 4800, diflufenican 450, terbutryn 4500
structure (smiles),measurement,setting,value
"Cn1nc(C(F)(F)F)c(CS(=O)(=O)C2=NOC(C)(C)C2)c1OC(F)F [pyroxasulfone, 3-[(5-difluoromethoxy-1-methyl-3-trifluoromethylpyrazol-4-yl)methylsulfonyl]-4,5-dihydro-5,5-di methyl-1,2-isoxazole]",Measured fresh weight inhibition rate (%),Aegilops tauschii; [1],4.9%
same,Measured fresh weight survival rate (%) - E,Aegilops tauschii; [1],95.1%
same,Measured fresh weight inhibition rate (%),Aegilops tauschii; [2],11.6%
same,Measured fresh weight survival rate (%) - E,Aegilops tauschii; [2],88.4%
same,Measured fresh weight inhibition rate (%),Aegilops tauschii; [3],47.6%
same,Measured fresh weight survival rate (%) - E,Aegilops tauschii; [3],52.4%
same,Measured fresh weight inhibition rate (%),Aegilops tauschii; [4],50.0%
same,Measured fresh weight survival rate (%) - E,Aegilops tauschii; [4],50.0%
same,Measured fresh weight inhibition rate (%),Aegilops tauschii; [5],78.7%
same,Measured fresh weight survival rate (%) - E,Aegilops tauschii; [5],21.3%
same,Measured fresh weight inhibition rate (%),Aegilops tauschii; [6],97.6%
same,Measured fresh weight survival rate (%) - E,Aegilops tauschii; [6],2.4%
same,Measured fresh weight inhibition rate (%),Lolium multiflorum Lamk; [1],68.2%
same,Measured fresh weight survival rate (%) - E,Lolium multiflorum Lamk; [1],31.8%
same,Measured fresh weight inhibition rate (%),Lolium multiflorum Lamk; [2],94.8%
same,Measured fresh weight survival rate (%) - E,Lolium multiflorum Lamk; [2],5.2%
same,Measured fresh weight inhibition rate (%),Lolium multiflorum Lamk; [3],100.0%
same,Measured fresh weight survival rate (%) - E,Lolium multiflorum Lamk; [3],0.0%
same,Measured fresh weight inhibition rate (%),Lolium multiflorum Lamk; [4],100.0%
same,Measured fresh weight survival rate (%) - E,Lolium multiflorum Lamk; [4],0.0%
same,Measured fresh weight inhibition rate (%),Lolium multiflorum Lamk; [5],100.0%
same,Measured fresh weight survival rate (%) - E,Lolium multiflorum Lamk; [5],0.0%
same,Measured fresh weight inhibition rate (%),Lolium multiflorum Lamk; [6],100.0%
same,Measured fresh weight survival rate (%) - E,Lolium multiflorum Lamk; [6],0.0%
same,Measured fresh weight inhibition rate (%),Bromus japonicus; [1],74.2%
same,Measured fresh weight survival rate (%) - E,Bromus japonicus; [1],25.8%
same,Measured fresh weight inhibition rate (%),Bromus japonicus; [2],88.7%
same,Measured fresh weight survival rate (%) - E,Bromus japonicus; [2],11.3%
same,Measured fresh weight inhibition rate (%),Bromus japonicus; [3],100.0%
same,Measured fresh weight survival rate (%) - E,Bromus japonicus; [3],0.0%
same,Measured fresh weight inhibition rate (%),Bromus japonicus; [4],100.0%
same,Measured fresh weight survival rate (%) - E,Bromus japonicus; [4],0.0%
same,Measured fresh weight inhibition rate (%),Bromus japonicus; [5],100.0%
same,Measured fresh weight survival rate (%) - E,Bromus japonicus; [5],0.0%
same,Measured fresh weight survival rate (%) - E,Galium aparine; 11.25 g ai/ha,67.1%
same,Measured fresh weight survival rate (%) - E,Galium aparine; 22.5 g ai/ha,21.9%
same,Measured fresh weight survival rate (%) - E,Galium aparine; 45 g ai/ha,4.1%
same,Measured fresh weight survival rate (%) - E,Galium aparine; 90 g ai/ha,4.1%
same,Measured fresh weight survival rate (%) - E,Galium aparine; 180 g ai/ha,0.0%
same,inhibition at 11.25 g/ha,"Galium aparine; Galium aparine, soil, 11.25 g ai/ha, read-out: Measured fresh weight inhibition rate (%)",32.9%
same,inhibition at 22.5 g/ha,"Galium aparine; Galium aparine, soil, 22.5 g ai/ha, read-out: Measured fresh weight inhibition rate (%)",78.1%
same,inhibition at 45 g/ha,"Galium aparine; Galium aparine, soil, 45 g ai/ha, read-out: Measured fresh weight inhibition rate (%)",95.9%
same,inhibition at 90 g/ha,"Galium aparine; Galium aparine, soil, 90 g ai/ha, read-out: Measured fresh weight inhibition rate (%)",95.9%
same,inhibition at 180 g/ha,"Galium aparine; Galium aparine, soil, 180 g ai/ha, read-out: Measured fresh weight inhibition rate (%)",100%
same,Measured fresh weight survival rate (%) - E,Lithospermum arvense; 11.25 g ai/ha,63.8%
same,Measured fresh weight survival rate (%) - E,Lithospermum arvense; 22.5 g ai/ha,55.1%
same,Measured fresh weight survival rate (%) - E,Lithospermum arvense; 45 g ai/ha,27.5%
same,Measured fresh weight survival rate (%) - E,Lithospermum arvense; 90 g ai/ha,21.7%
same,Measured fresh weight survival rate (%) - E,Lithospermum arvense; 180 g ai/ha,10.1%
same,inhibition at 11.25 g/ha,"Lithospermum arvense; Buglossoides arvensis, soil, 11.25 g ai/ha, read-out: Measured fresh weight inhibition rate (%)",36.2%
same,inhibition at 22.5 g/ha,"Lithospermum arvense; Buglossoides arvensis, soil, 22.5 g ai/ha, read-out: Measured fresh weight inhibition rate (%)",44.9%
same,inhibition at 45 g/ha,"Lithospermum arvense; Buglossoides arvensis, soil, 45 g ai/ha, read-out: Measured fresh weight inhibition rate (%)",72.5%
same,inhibition at 90 g/ha,"Lithospermum arvense; Buglossoides arvensis, soil, 90 g ai/ha, read-out: Measured fresh weight inhibition rate (%)",78.3%
same,inhibition at 180 g/ha,"Lithospermum arvense; Buglossoides arvensis, soil, 180 g ai/ha, read-out: Measured fresh weight inhibition rate (%)",89.9%
same,Measured fresh weight survival rate (%) - E,Solanum nigrum; 11.25 g ai/ha,82.4%
same,Measured fresh weight survival rate (%) - E,Solanum nigrum; 22.5 g ai/ha,68.2%
same,Measured fresh weight survival rate (%) - E,Solanum nigrum; 45 g ai/ha,38.4%
same,Measured fresh weight survival rate (%) - E,Solanum nigrum; 90 g ai/ha,8.2%
same,Measured fresh weight survival rate (%) - E,Solanum nigrum; 180 g ai/ha,4.7%
same,inhibition at 22.5 g/ha,"Solanum nigrum; Solanum nigrum, soil, read-out: Measured fresh weight inhibition rate (%)",31.8%
same,inhibition at 11.25 g/ha,"Solanum nigrum; Solanum nigrum, soil, 11.25 g ai/ha, read-out: Measured fresh weight inhibition rate (%)",17.6%
same,inhibition at 45 g/ha,"Solanum nigrum; Solanum nigrum, soil, 45 g ai/ha, read-out: Measured fresh weight inhibition rate (%)",61.6%
same,inhibition at 90 g/ha,"Solanum nigrum; Solanum nigrum, soil, 90 g ai/ha, read-out: Measured fresh weight inhibition rate (%)",91.8%
same,inhibition at 180 g/ha,"Solanum nigrum; Solanum nigrum, soil, 180 g ai/ha, read-out: Measured fresh weight inhibition rate (%)",95.3%
